Assay results reported in ChEMBL document CHEMBL1201862, “PubChem BioAssay data set” (2004).
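Exposure lasted 48 hours, with cells grown in 96-well plates and compounds tested at five concentrations. GI50 is the concentration that inhibits growth by half.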 Calls of active or inactive are those of the source. Cut-off read from the data, not from the text of the source: active = GI50 up to about 1.1 µM and inactive = higher.

How the values were obtained:
Assay in all cases: inhibition of tumour cell growth, NCI panel, 48 h
[1] = tested on: A549
[2] = tested on: ACHN
[3] = tested on: COLO 205
[4] = tested on: HOP-92
[5] = tested on: MDA-MB-231
[6] = tested on: MDA-N
[7] = tested on: NCI-H226
[8] = tested on: NCI-H522
[9] = tested on: NCI/ADR-RES
[10] = tested on: OVCAR-3
[11] = tested on: PC-3
[12] = tested on: RPMI-8226
[13] = tested on: RXF 393
[14] = tested on: SF-268
[15] = tested on: SF-295
[16] = tested on: SK-MEL-28
[17] = tested on: SK-MEL-2
[18] = tested on: SK-OV-3
[19] = tested on: SNB-19
[20] = tested on: UO-31

Compound	GI50 [1]	GI50 [2]	GI50 [3]	GI50 [4]	GI50 [5]	GI50 [6]	GI50 [7]	GI50 [8]	GI50 [9]	GI50 [10]	GI50 [11]	GI50 [12]	GI50 [13]	GI50 [14]	GI50 [15]	GI50 [16]	GI50 [17]	GI50 [18]	GI50 [19]	GI50 [20]
O=C1C(NCCc2cc(Br)c(O)c(Br)c2)=CC(=O)c2ncccc21	3.52 µM (inactive)	6.38 µM (inactive)	5.7 µM (inactive)	28.1 µM (inactive)	10.2 µM (inactive)	1.82 µM (inactive)	2.29 µM (inactive)	3.17 µM (inactive)	9.2 µM (inactive)	1.84 µM (inactive)	20.9 µM (inactive)	4.79 µM (inactive)	7.93 µM (inactive)	8.32 µM (inactive)	2.34 µM (inactive)	3.21 µM (inactive)	8.07 µM (inactive)	14.8 µM (inactive)	3.86 µM (inactive)	5.87 µM (inactive)
Cn1cccc1-c1ccc(-c2ccc(CO)[se]2)[se]1	15.2 µM (inactive)	38.9 µM (inactive)	11.4 µM (inactive)	> 100 µM (inactive)	29.8 µM (inactive)	8.53 µM (inactive)	0.307 µM (active)	10.2 µM (inactive)	22.8 µM (inactive)	4.02 µM (inactive)	24.5 µM (inactive)	7.98 µM (inactive)	5.66 µM (inactive)	44.7 µM (inactive)	10.7 µM (inactive)	16.6 µM (inactive)	28.8 µM (inactive)	22.1 µM (inactive)	17.8 µM (inactive)	35.7 µM (inactive)
CC(C)(C)OC(=O)NNCC(O)COc1ccccc1 (stereo not given)	> 100 µM (inactive)	> 100 µM (inactive)	> 100 µM (inactive)	> 100 µM (inactive)	> 100 µM (inactive)	> 100 µM (inactive)	> 100 µM (inactive)	> 100 µM (inactive)	> 100 µM (inactive)	> 100 µM (inactive)	> 100 µM (inactive)	> 100 µM (inactive)	> 100 µM (inactive)	> 100 µM (inactive)	> 100 µM (inactive)	> 100 µM (inactive)	> 100 µM (inactive)	> 100 µM (inactive)	> 100 µM (inactive)	> 100 µM (inactive)
CCCC(=O)OCC(COC(=O)CCC)OC(=O)CCC [TRIBUTYRIN]	96.6 µM (inactive)	96.2 µM (inactive)	55.6 µM (inactive)	> 100 µM (inactive)	45.2 µM (inactive)	65.2 µM (inactive)	> 100 µM (inactive)	17.9 µM (inactive)	20.1 µM (inactive)	> 100 µM (inactive)	99.3 µM (inactive)	17.1 µM (inactive)	> 100 µM (inactive)	> 100 µM (inactive)	> 100 µM (inactive)	66.1 µM (inactive)	24.2 µM (inactive)	61.2 µM (inactive)	> 100 µM (inactive)	34.4 µM (inactive)
O=c1c2cnccc2cc2c3ccccc3ccn12	45.8 µM (inactive)	19.3 µM (inactive)	63.2 µM (inactive)	> 100 µM (inactive)	> 100 µM (inactive)	> 100 µM (inactive)	> 100 µM (inactive)	45.6 µM (inactive)	> 100 µM (inactive)	> 100 µM (inactive)	77.8 µM (inactive)	19.9 µM (inactive)	> 100 µM (inactive)	86.1 µM (inactive)	> 100 µM (inactive)	> 100 µM (inactive)	> 100 µM (inactive)	> 100 µM (inactive)	> 100 µM (inactive)	23.1 µM (inactive)
CC(C)=CCOc1cc(NC(=S)c2ccsc2C)ccc1Cl	46.7 µM (inactive)	16.7 µM (inactive)	37.3 µM (inactive)	5.87 µM (inactive)	13.1 µM (inactive)	> 100 µM (inactive)	13.5 µM (inactive)	54.5 µM (inactive)	80.4 µM (inactive)	14.1 µM (inactive)	17.8 µM (inactive)	15.7 µM (inactive)	27.9 µM (inactive)	32.3 µM (inactive)	36 µM (inactive)	> 100 µM (inactive)	27.4 µM (inactive)	24.5 µM (inactive)	31.8 µM (inactive)	5.85 µM (inactive)
